Experiments:
AMARE [1] = experiment: greenhouse post-emergence herbicidal test; format: in vivo, Amaranthus retroflexus; settings: post-emergence method, application rate 1,000 kg/ha; scale from 0 to 100
From the text: (§1) The culture containers used were plastic flowerpots containing loamy sand with approximately 3.0% of humus as the substrate. The seeds of the test plants were sown separately for each species.
(§2) For the pre-emergence treatment, the active ingredients, which had been suspended or emulsified in water, were applied directly after sowing by means of finely distributing nozzles. The containers were irrigated gently to promote germination and growth and subsequently covered with transparent plastic hoods until the test plants had rooted. This cover caused uniform germination of the test plants, unless this had been impaired by the active ingredients. For the post-emergence treatment, the test plants were first grown to a height of 3 to 15 cm, depending on the plant habit, and only then treated with the active ingredients which had been suspended or emulsified in water. For this purpose, the test plants were either sown directly and grown in the same containers, or they were first grown separately as seedlings and transplanted into the test containers a few days prior to treatment.
(§3) Depending on the species, the test plants were kept at 10-25° C. or 20-35° C., respectively. The test period extended over 2 to 4 weeks. During this time, the test plants were tended, and their response to the individual treatments was evaluated.
(§4) Evaluation was carried out using a scale from 0 to 100. […]

AVEFA = experiment: greenhouse post-emergence herbicidal test; format: in vivo, Avena fatua; settings: post-emergence method, application rate 1,000 kg/ha; scale from 0 to 100
From the text: as §1, §2, §3, §4

APESV = experiment: greenhouse pre-emergence herbicidal test; format: in vivo, Apera spica-venti; settings: pre-emergence method, application rate 1,000 kg/ha; scale from 0 to 100
From the text: as §1, §2, §3, §4

ECHCG = experiment: greenhouse pre-emergence herbicidal test; format: in vivo, Echinocloa crus-galli; settings: pre-emergence method, application rate 1,000 kg/ha; scale from 0 to 100
From the text: as §1, §2, §3, §4

AMARE [2] = experiment: greenhouse pre-emergence herbicidal test; format: in vivo, Amaranthus retroflexus; settings: pre-emergence method, application rate 1,000 kg/ha; scale from 0 to 100
From the text: as §1, §2, §3, §4

## CCOC(=O)C1CC(c2cc(F)cc(F)c2)=CO1 (stereo not drawn) [compound 11, ethyl 4-(3,5-difluorophenyl)-2,3-dihydrofuran-2-carboxylate]
AMARE [1]
  herbicidal activity against AMARE: very good herbicidal activity (a very good herbicidal activity is given at values of 90 to 100)

## O=C(O)C1(C(F)(F)F)CC(c2cc(F)cc(F)c2)=CO1 (stereo not drawn) [compound 17, 4-(3,5-difluorophenyl)-2-(trifluoromethyl)-3H-furan-2-carboxylic acid]
AVEFA
  herbicidal activity against AVEFA: very good herbicidal activity (a very good herbicidal activity is given at values of 90 to 100)

## ethyl 4-(3,5-dichlorophenyl)-2-methyl-3H-furan-2-carboxylic acid [compound 14]
APESV
  herbicidal activity against APESV: very good herbicidal activity (a very good herbicidal activity is given at values of 90 to 100)
ECHCG
  herbicidal activity against ECHCG: very good herbicidal activity (a very good herbicidal activity is given at values of 90 to 100)

## ethyl 4-(3,5-difluorophenyl)-2-methyl-3H-furan-2-carboxylic acid [compound 12]
AMARE [2]
  herbicidal activity against AMARE: good herbicidal activity (A good herbicidal activity is given at values of 65 to 90)
ECHCG
  herbicidal activity against ECHCG: good herbicidal activity (A good herbicidal activity is given at values of 65 to 90)

— patent publication US20240294484A1, “HERBICIDAL ARYLDIHYDROFURANE CARBOXYLATES” (BASF SE, priority 2021, published 2024)
